Assay results: patent US20240262806A1, “INHIBITORS OF NLRP3” (PTC THERAPEUTICS, INC., priority 2021, published 2024)

tested on: NLRP3 inflammasome; assay: IL-1β Secretion Assay (NLRP3-dependent IL-1β secretion in PMA-differentiated THP-1 cells, nigericin activation, HTRF); type: cell-based; conditions: Homo sapiens, THP-1, THP-1 cells, 100 ng/mL PMA 24 h, compound 20 h, 2.5 μM Nigericin 3 h; read-out: IC50 IL-1β Inhibition
Summary of the method: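 PMA-differentiated THP-1 cells in RPMI with 5% FBS were treated with compounds at 7 concentrations in threefold DMSO dilutions. NLRP3 was activated with nigericin and secreted IL-1β measured by HTRF. IC50 from a logistic fit of percent inhibition versus concentration.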

| Compound | IC50 |
| --- | --- |
| CC#Cc1cc(C(F)(F)F)ccc1-c1nnc(N[C@@H]2CCCN(C)C2)c2cnccc12 [Compound I-228, (R)—N-(1-methylpiperidin-3-yl)-1-(2-(prop-1-yn-1-yl)-4-(trifluoromethyl)phenyl)pyrido[3,4-d]pyridazin-4-amine] | 1 to 10 nM |
| Cc1cc2c(N[C@@H]3CCCNC3)nnc(-c3ccc(C(F)(F)F)cc3O)n2n1 [Compound I-332] | 10 to 100 nM |
| CN1CCC[C@@H](Nc2nnc(-c3ccc(-n4ccnn4)cc3O)c3ccccc23)C1 [Compound I-37] | 10 to 100 nM |
| CN1CCCC(Cc2nnc(-c3ccc(C(F)(F)F)cc3O)c3cnccc23)C1 (stereo not shown) [Compound I-118, 2-(1-((1-Methylpiperidin-3-yl)methyl)pyrido[3,4-d]pyridazin-4-yl)-5-(trifluoromethyl)phenol] | 1 to 10 nM |
| Cc1cc2c(-c3ccc(C(F)(F)F)cc3OC(F)F)nnc(N[C@@H]3CCCN(CCO)C3)n2n1 [Compound I-375, (R)-2-(3-((4-(2-(Difluoromethoxy)-4-(trifluoromethyl)phenyl)-2-methylpyrazolo[1,5-d][1,2,4]triazin-7-yl)amino)piperidin-1-yl)ethan-1-ol] | 1 to 10 nM |
| Oc1cc(C(F)(F)F)ccc1-c1nnc(NC2CCNC2)c2ccccc12 (stereo not shown) [Compound I-6] | 10 to 100 nM |
| Cc1cc2c(-c3ccc(C(F)(F)F)cc3OC(F)F)nnc(N[C@@H]3CCCN(C)C3)n2n1 [Compound I-330] | 1 to 10 nM |
| COc1cc(C(F)(F)F)ccc1-c1nnc(N[C@@H]2CCCN(C)C2)c2c1cnn2C [Compound I-144, 4-[2-Methoxy-4-(trifluoromethyl)phenyl]-1-methyl-N-[(3R)-1-methyl-3-piperidyl]pyrazolo[3,4-d]pyridazin-7-amine] | 1 to 10 nM |
| COc1ccc(-c2nnc(N[C@@H]3CCCN(C)C3)c3cnccc23)c(O)c1 [Compound I-175] | < 1 nM |
| CCN1C[C@H](F)C[C@@H](Nc2nnc(-c3c(O)cc(C4CC4)cc3F)c3cccn23)C1 [Compound I-576] | < 1 nM |
| CN1CC=C[C@@H](Nc2nnc(-c3ccc(C(F)(F)F)cc3O)c3cncn23)C1 [Compound I-460] | 1 to 10 nM |
| CN1CCC[C@@H](Nc2nnc(-c3ccc(C(F)(F)F)cc3O)c3cnccc23)C1 [Compound I-54] | < 1 nM |
| CN1CCC[C@@H](Nc2nnc(-c3ncc(C4CC4)cc3O)c3ccccc23)C1 [Compound I-91, (R)-5-Cyclopropyl-2-(4-((1-methylpiperidin-3-yl)amino)phthalazin-1-yl)pyridin-3-ol] | < 1 nM |
| CN1CCC[C@@H](Nc2nnc(-c3c(F)cc(C(F)(F)F)cc3OC(F)F)c3cccn23)C1 [Compound I-487] | 1 to 10 nM |
| CCOC(=O)[C@@H]1CC[C@@H](Nc2nnc(-c3ccc(C(F)(F)F)cc3O)c3ccncc23)CN1 [Compound I-266, Ethyl (2S,5R)-5-((1-(2-hydroxy-4-(trifluoromethyl)phenyl)pyrido[3,4-d]pyridazin-4-yl)amino)piperidine-2-carboxylate] | < 1 nM |
| CC(C)N1CCC[C@@H](Nc2nnc(-c3ccc(C(F)(F)F)cc3O)c3cccn23)C1 [Compound I-480] | 1 to 10 nM |
| OCCN1CCC[C@@H](Nc2nnc(-c3c(O)cc(C4CC4)cc3F)c3cccn23)C1 [Compound I-379] | 1 to 10 nM |
| CCN1CCC[C@@H](Nc2nnc(-c3ccc(OC(F)(F)F)cc3OC(F)F)c3cccn23)C1 [Compound I-565] | 1 to 10 nM |
| CN1CCC[C@@H](Nc2nnc(-c3cccc(C4CC4)c3O)c3ccncc23)C1 [Compound I-77] | < 1 nM |
| CN1CCC[C@@H](Nc2nnc(-c3ccc(C(F)(F)F)cc3Cl)c3ccncc23)C1 [Compound I-143, (R)-1-(2-Chloro-4-(trifluoromethyl)phenyl)-N-(1-methylpiperidin-3-yl)pyrido[3,4-d]pyridazin-4-amine] | 1 to 10 nM |
| Oc1cc(C(F)(F)F)ccc1-c1nnc(N[C@@H]2CCOC2)n2cccc12 [Compound I-474] | 10 to 100 nM |
| CN1CCC[C@H]1CNc1nnc(-c2ccc(C(F)(F)F)cc2O)c2ccccc12 [Compound I-87] | 1 to 10 nM |

| Compound | IC50 |
| --- | --- |
| Oc1cc(C(F)(F)F)ccc1-c1nnc(N[C@@H]2CCCN(CCOC(F)F)C2)c2cnccc12 [Compound I-293] | < 1 nM |
| CCN1CCC[C@@H](Nc2nnc(-c3ccc(OC(F)F)cc3OC(F)F)c3cccn23)C1 [Compound I-613] | 1 to 10 nM |
| Oc1cc(C(F)(F)F)ccc1-c1nnc(N[C@@H]2CCCNC2)c2c1CCCC2 [Compound I-11, (R)-2-(4-(Piperidin-3-ylamino)-5,6,7,8-tetrahydrophthalazin-1-yl)-5-(trifluoromethyl)phenol] | 10 to 100 nM |
| CN1CCC[C@@H](Nc2nnc(-c3ccc(Cl)cc3OC(F)F)c3ccccc23)C1 [Compound I-133] | 1 to 10 nM |
| CN1CCC[C@@H](Nc2nnc(-c3ccc(C(F)(F)F)cc3F)c3ccncc23)C1 [Compound I-128] | 1 to 10 nM |
| C[C@]1(O)C[C@@H](Nc2nnc(-c3ccc(Br)cc3O)c3ccnn23)C1 [Compound I-544] | 1 to 10 nM |
| FC(F)OCCN1CCC[C@@H](Nc2nnc(-c3ccc(C(F)(F)F)cc3OC(F)F)c3cccn23)C1 [Compound I-323, 1-[2-(difluoromethoxy)-4-(trifluoromethyl)phenyl]-N-[(3R)-1-[2-(difluoromethoxy)ethyl]-3-piperidyl]pyrrolo[1,2-d][1,2,4]triazin-4-amine] | 1 to 10 nM |
| CN1CCC[C@@H](Nc2nnc(-c3ccc(Cl)cc3O)c3ccccc23)C1 [Compound I-13] | < 1 nM |
| COc1cc(C(F)(F)F)ccc1-c1nnc(N2CCC(N(C)C)CC2)c2cnccc12 [Compound I-201] | 10 to 100 nM |
| Oc1cc(C(F)(F)F)ccc1-c1nnc(N[C@@H]2CCCN(C3CCOCC3)C2)n2cccc12 [Compound I-343] | 1 to 10 nM |
| C[C@]1(O)C[C@H](Nc2nnc(-c3ccc(C(F)(F)F)cc3O)c3ccncc23)C1 [Compound I-316] | 1 to 10 nM |
| Oc1cc(C(F)(F)F)ccc1-c1nnc(N[C@@H]2CCCN(CC(F)(F)F)C2)c2cnccc12 [Compound I-283] | < 1 nM |
| Oc1cc(C(F)(F)F)ccc1-c1nnc(NC2CCCNCC2)c2cnccc12 (stereo not shown) [Compound I-253] | 1 to 10 nM |
| CN1CCC[C@H](Nc2nnc(-c3ccc(Cl)cc3O)c3c2N(C)CCC3)C1 [Compound I-155] | 1 to 10 nM |
| Oc1cc(C(F)(F)F)ccc1-c1nnc(N[C@@H]2CCCN(CC(F)F)C2)n2cccc12 [Compound I-412] | < 1 nM |
| Cc1cc2c(-c3c(C)cc(C(F)(F)F)cc3O)nnc(N[C@@H]3CCCN(C)C3)n2n1 [Compound I-560] | 1 to 10 nM |
| CO[C@H]1CCC[C@@H](Nc2nnc(-c3ccc(C(F)(F)F)cc3O)c3ccncc23)C1 [Compound I-308] | < 1 nM |
| CN1CCC[C@@H](Nc2nnc(-c3ccc(C(F)(F)F)cc3S(C)(=O)=O)c3ccncc23)C1 [Compound I-192] | 10 to 100 nM |
| CC(C)N1CCC[C@@H](Nc2nnc(-c3ccc(C(F)(F)F)cc3OC(F)F)c3c(F)ccn23)C1 [Compound I-592] | < 1 nM |
| COc1cc(C(F)(F)F)ccc1-c1nnc(NC2CC3CCC(C3)N2C)c2cnccc12 (stereo not shown) [Compound I-213] | 100 to 300 nM |
| OCCN1CCC[C@@H](Nc2nnc(-c3c(O)cc(Cl)cc3F)c3cccn23)C1 [Compound I-482] | 1 to 10 nM |
| CN1CCN(CCNc2nnc(-c3ccc(C(F)(F)F)cc3O)c3ccccc23)CC1 [Compound I-161] | 10 to 100 nM |

| Compound | IC50 |
| --- | --- |
| OCCN1CCC[C@@H](Nc2nnc(-c3ccc(Br)cc3O)c3cncn23)C1 [Compound I-623] | < 1 nM |
| CN1CCC[C@@H](Nc2nnc(-c3ccc(C4=CCOCC4)cc3O)c3ccccc23)C1 [Compound I-56] | 10 to 100 nM |
| CN1CCC[C@@H](Nc2nnc(-c3ccc(C(F)(F)F)cc3O)c3cnnn23)C1 [Compound I-461, (R)-2-(7-((1-Methylpiperidin-3-yl)amino)-[1,2,3]triazolo[1,5-d][1,2,4]triazin-4-yl)-5-(trifluoromethyl)phenol] | 1 to 10 nM |
| CCN1CCC[C@@H](Nc2nnc(-c3c(O)cc(C)cc3F)c3cc(C)nn23)C1 [Compound I-515] | < 1 nM |
| COc1cc(C(F)(F)F)ccc1-c1nnc(N[C@H]2CN3CCC2CC3)c2cnccc12 [Compound I-199] | 10 to 100 nM |
| CN1CCC[C@@H](Nc2nnc(-c3ccc(Cl)cc3O)c3cnccc23)C1 [Compound I-59] | < 1 nM |
| CO[C@H]1CCC[C@@H](Nc2nnc(-c3ccc(C(F)(F)F)cc3OC(F)F)c3cccn23)C1 [Compound I-362] | 10 to 100 nM |
| CN1CCC[C@@H](Nc2nnc(-c3ccc(C#N)nc3O)c3ccccc23)C1 [Compound I-80] | 100 to 300 nM |
| COc1ccc(-c2nnc(N[C@@H]3CCCN(C)C3)n3nc(C)cc23)c(C(F)(F)F)c1 [Compound I-381] | 1 to 10 nM |
| CN1CCC[C@@H](Nc2nnc(-c3cccc(F)c3O)c3ccccc23)C1 [Compound I-28] | 10 to 100 nM |
| CN1CCC[C@@H](Nc2nnc(-c3ccc(C(F)(F)F)cc3OC(F)F)c3cnccc23)C1 [Compound I-122] | 1 to 10 nM |
| Cc1ccc(O)c(-c2nnc(N[C@@H]3CCCN(C)C3)c3ccccc23)c1 [Compound I-17] | 100 to 300 nM |
| CN1CCOCC(Nc2nnc(-c3ccc(C(F)(F)F)cc3O)c3ccncc23)C1 (stereo not shown) [Compound I-262] | 1 to 10 nM |
| Cc1cc(O)c(-c2nnc(N[C@@H]3C[C@@H](F)CN(C)C3)n3cccc23)c(F)c1 [Compound I-444] | < 1 nM |
| CN1CCC[C@@H](Nc2nnc(-c3ccc(OC(F)(F)F)cc3OC(F)F)c3cccn23)C1 [Compound I-519] | 1 to 10 nM |
| Cc1ccc(-c2nnc(N[C@@H]3CCCN(C)C3)c3ccccc23)c(O)c1F [Compound I-51] | < 1 nM |
| CC(C)(O)CNc1nnc(-c2c(O)cc(C3CC3)cc2F)c2cccn12 [Compound I-540] | 10 to 100 nM |
| Oc1cc(C(F)(F)F)ccc1-c1nnc(N[C@@H]2CCCOC2)n2cncc12 [Compound I-397] | 10 to 100 nM |
| Cc1ccc(-c2nnc(N[C@@H]3CCCN(C)C3)c3cnccc23)c(OC(F)F)c1 [Compound I-134] | 1 to 10 nM |
| Cc1cccc(O)c1-c1nnc(N[C@@H]2CCCN(C)C2)c2cnccc12 [Compound I-105] | 1 to 10 nM |
